Measured values reported in patent publication US20110045101A1, “FUNGICIDAL SUBSTITUTED AZOLES” (E.I. Du Pont De Nemours and Company, priority 2009, published 2011).
Marks after values point to notes of the source that are not given here.

What was measured:
Format in all cases: in vivo
Settings in all cases: 100 = 100% disease control
Botrytis cinerea = experiment: Test C: tomato Botrytis on tomato seedlings, sprayed the day before inoculation, visual disease rating
Method in brief: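 Rate: 200 ppm sprayed to run-off, corresponding to 500 g/ha; flagged values used 40 ppm. Vehicle was aqueous acetone (1:1) plus 250 ppm surfactant, compounds predissolved in acetone at 3% of volume. Plants were tomato seedlings.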

Alternaria solani = experiment: Test D: tomato early blight, sprayed the day before inoculation, visual disease rating
Method in brief: (§1)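 Plants received a run-off spray at 200 ppm (equivalent to 500 g/ha) or, for starred values, 40 ppm. Formulation used acetone at 3% of volume in a 50/50 acetone/water mix carrying 250 ppm Trem® 014.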

Septoria nodorum = experiment: Test F: wheat glume blotch on wheat seedlings, sprayed the day before inoculation, visual disease rating
Method in brief: as §1

Septoria tritici = experiment: Test G: wheat leaf blotch on wheat seedlings, sprayed the day before inoculation, visual disease rating
Method in brief: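 Visual disease ratings taken 19 days after transfer to a 20° C growth chamber, following 48 h in saturated atmosphere at 24° C. Seedlings had been sprayed to run-off one day before spore inoculation. Dose 200 ppm, or 40 ppm where starred.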

[1] = test system: Puccinia recondita f. sp. tritici; experiment: Test H: wheat leaf rust, test suspension sprayed after inoculation of wheat seedlings, visual disease rating
Method in brief: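 Wheat seedlings inoculated with P. recondita spores, held 24 h saturated at 20 °C, then 2 days in growth chamber at 20 °C; compound suspension (acetone/water with Trem 014) sprayed to run-off afterwards. Rated visually; 200 ppm (≈500 g/ha) unless marked *, which denotes 40 ppm.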

[2] = test system: Puccinia recondita f. sp. tritici; experiment: Test I: wheat leaf rust on wheat seedlings, sprayed the day before inoculation, visual disease rating
Method in brief: as §1

[3] = test system: Erysiphe graminis f. sp. tritici; experiment: Test J: wheat powdery mildew on wheat seedlings, sprayed the day before inoculation, visual disease rating
Method in brief: as §1

[4] = 200 ppm, 0 = no control relative to controls
[5] = 40 ppm (marked *), 0 = no control

SMILES | Test C disease control rating (Botrytis cinerea; [4]) [%] | Test D disease control rating (Alternaria solani; [4]) [%] | Test F disease control rating (Septoria nodorum; [4]) [%] | Test G disease control rating (Septoria tritici; [4]) [%] | Test H disease control rating [1, 4] [%] | Test I disease control rating [2, 4] [%] | Test J disease control rating [3, 4] [%] | other results
COc1cc(F)c(-c2c(Cl)nc(Cl)n2Cc2ccc(Cl)nc2)c(F)c1 [compound 667] | 100 | 100 | 100 | 99 | 8 | 97 | 76 | 
COc1cc(F)c(-c2c(Cl)nc(Cl)n2C(C)c2ncc(Cl)cc2Cl)c(F)c1 (stereo not shown) [compound 727] | 98 | 0 | 0 | 89 | 15 | 74 | 21 | 
CCOc1ccc(F)c(-c2c(Cl)nc(Cl)n2-c2ccc(Cl)cc2)c1F [compound 664] | 100 | 99 | 96 | 99 | 46 | 97 | 100 | 
COc1ccc(F)c(-c2c(Cl)nc(Cl)n2-c2ccc(Cl)nc2)c1F [compound 709] | 100 | 100 | 100 | 99 | 100 | 100 | 100 | 
COc1cc(F)c(-c2c(Cl)nc(CO)n2-c2ccc(F)cc2)c(F)c1 [Compound 298, 4-chloro-5-(2,6-difluoro-4-methoxyphenyl)-1-(4-fluorophenyl)-1H-imidazole-2-methanol] |  |  |  |  |  |  |  | pest or weed control at 200 ppm (Botrytis cinerea; Botrytis cinerea, 120 h, 200 ppm, 0 = no control relative to controls): 100%; pest or weed control at 200 ppm (Alternaria solani; Alternaria solani, 168 h, 200 ppm, 0 = no control relative to controls): 100%; pest or weed control at 200 ppm (Septoria nodorum; Parastagonospora nodorum, 264 h, 200 ppm, 0 = no control relative to controls): 0%; pest or weed control at 200 ppm (Septoria tritici; Zymoseptoria tritici, 504 h, 200 ppm, 0 = no control relative to controls): 96%; pest or weed control at 200 ppm ([1]; Puccinia recondita, 96 h, 200 ppm, 0 = no control relative to controls): 0%; pest or weed control at 200 ppm ([2]; Puccinia recondita, 168 h, 200 ppm, 0 = no control relative to controls): 98%; pest or weed control at 200 ppm ([3]; Blumeria graminis, 168 h, 200 ppm, 0 = no control relative to controls): 0%
Cc1nc(C)n(-c2ccc(F)cc2)c1-c1c(F)cc(F)cc1F [compound 491] |  |  |  |  |  |  |  | Test C disease control rating (Botrytis cinerea; 40 ppm (marked *)): 92* %; Test D disease control rating (Alternaria solani; 40 ppm (marked *)): 99* %; Test F disease control rating (Septoria nodorum; 40 ppm (marked *)): 0* %; Test G disease control rating (Septoria tritici; 40 ppm (marked *)): 91* %; Test H disease control rating ([1]; 40 ppm (marked *)): 0* %; Test I disease control rating ([2]; 40 ppm (marked *)): 0* %; Test J disease control rating ([3]; 40 ppm (marked *)): 0* %
Cc1nc(Cl)n(-c2ccc(F)cc2Cl)c1-c1ccc(Cl)c(F)c1 [compound 573] | 100 | 100 | 0 | 96 | 22 | 100 | 99 | 
COc1ccc(F)c(-c2c(C)nc(Cl)n2-c2ccc(Cl)nc2)c1F [compound 733] | 100 | 100 | 100 | 100 | 41 | 100 | 100 | 
Cc1nc(Cl)c(-c2c(F)cccc2F)n1-c1ccc2ccccc2c1 [compound 303] |  |  |  |  |  |  |  | Test C disease control rating (Botrytis cinerea; [5]): 100* %; Test D disease control rating (Alternaria solani; [5]): 99* %; Test F disease control rating (Septoria nodorum; [5]): 98* %; Test G disease control rating (Septoria tritici; [5]): 96* %; Test H disease control rating [1, 5]: 0* %; Test I disease control rating [2, 5]: 74* %; Test J disease control rating [3, 5]: 81* %
Fc1cc(F)c(-c2c(Cl)nc(Br)n2-c2ccc(OC(F)F)cc2)c(F)c1 [compound 604] | 99 | 100 | 100 | 99 | 97 | 100 | 100 | 
Cc1nc(C)n(-c2ccc(Cl)c(F)c2)c1-c1c(F)ccc(F)c1F [compound 415] |  |  |  |  |  |  |  | Test C disease control rating (Botrytis cinerea; [5]): 100* %; Test D disease control rating (Alternaria solani; [5]): 100* %; Test F disease control rating (Septoria nodorum; [5]): 0* %; Test G disease control rating (Septoria tritici; [5]): 99* %; Test H disease control rating [1, 5]: 0* %; Test I disease control rating [2, 5]: 94* %; Test J disease control rating [3, 5]: 98* %
Fc1cccc(F)c1-c1c(Cl)nc(Cl)n1-c1cccnc1Cl [compound 617] | 99 | 99 | 0 | 100 | 100 | 100 | 99 | 
COc1cc(F)c(-c2c(Cl)nc(Cl)n2-c2ccc(C)c(I)c2)c(F)c1 [compound 647] |  |  |  | 95 |  |  |  | Test C disease control rating (Botrytis cinerea; 40 ppm (marked *)): 0* %; Test D disease control rating (Alternaria solani; 40 ppm (marked *)): 0* %; Test F disease control rating (Septoria nodorum; 40 ppm (marked *)): 0* %; Test H disease control rating ([1]; 40 ppm (marked *)): 0* %; Test I disease control rating ([2]; 40 ppm (marked *)): 0* %; Test J disease control rating ([3]; 40 ppm (marked *)): 69* %
COc1cc(F)c(-c2c(Cl)nc(C)n2-c2cccc(OC(F)F)c2)c(F)c1 [compound 588] | 100 | 100 | 100 | 97 | 100 | 100 | 100 | 
COc1ccc(F)c(-c2c(Cl)nc(Br)n2-c2cccc(OC(F)F)c2)c1F [compound 402] | 100 | 100 | 99 | 96 | 0 | 94 | 99 | 
Clc1ccc(-c2c(Cl)ncn2Cc2cccc(Cl)c2)cc1 [compound 272] |  |  |  |  |  |  |  | Test C disease control rating (Botrytis cinerea; 200 ppm, 0 = no control): 64%; Test D disease control rating (Alternaria solani; 200 ppm, 0 = no control): 0%; Test F disease control rating (Septoria nodorum; 200 ppm, 0 = no control): 0%; Test G disease control rating (Septoria tritici; 200 ppm, 0 = no control): 91%; Test H disease control rating ([1]; 200 ppm, 0 = no control): 17%; Test I disease control rating ([2]; 200 ppm, 0 = no control): 55%; Test J disease control rating ([3]; 200 ppm, 0 = no control): 0%
